Test results from patent US20090061515A1, “Methods of inhibiting or suppressing cellular proliferation” (priority 2007, published 2009).

How the values were obtained:
Assay type in all cases: cell-based
[1] = system: Normal Human Dermal Fibroblast (NHDF) cells; assay: Cell proliferation and viability assays (CyQuant, CellTiter-Glo, CellTiter 96), NHDF (Example 5); settings: 48 hours
Text: (§1) Multiple assays were used to test a variety of cellular properties expressed after exposure of different cells types to 5,6-dihydroxy-hexan-2-one. A cell proliferation assay available under the trade designation CyQuant from Invitrogen Corporation (Carlsbad, Calif.) determines the density of cells in culture by using a green fluorescent dye which fluoresces when bound to cellular nucleic acids. The amount of nucleic acid present is proportional to the amount of living cells in culture. […]
(§2) The amount of ATP present is proportional to the measured amount of a luminescent signal and therefore the amount of viable cells. […] The absorbance read is proportional to the amount of metabolic activity present in the cells.
(§3) Normal human dermal fibroblast (NHDF) cells and coronary artery smooth muscle cells (CASMC) in culture were exposed to 5,6-dihydroxy-hexan-2-one at concentrations of 10 microgram/ml, 1 mg/ml, and 10 mg/ml, for 48 hours, after which the cell culture wells were analyzed for cell proliferation and viability. […] FIG. 17 is a graphical representation of fibroblast cell numbers measured after 48 hours exposure to different concentrations of 5,6-dihydroxy-hexan-2-one. FIG. 18 is a graphical representation of smooth muscle cell numbers measured after 48 hours exposure to different concentrations of 5,6-dihydroxy-hexan-2-one. […]

[2] = system: coronary artery smooth muscle cells (CASMC); assay: Cell proliferation and viability assays (CyQuant, CellTiter-Glo, CellTiter 96), CASMC (Example 5); settings: 48 hours
Text: as §1, §2, §3

[3] = system: Normal Human Dermal Fibroblast (NHDF) cells; assay: Cell migration into scraped monolayer, NHDF (Example 5); settings: 1 and 10 mg/ml, 48 hours exposure then 72 hours growth
Method: (§4) In a similar manner, cell migration was explored in vitro by scraping the cell monolayer and culturing the cells in the presence of 5,6-dihydroxy-hexan-2-one at concentrations of 1 mg/ml and 10 mg/ml. FIGS. 20(a)-(l) are pictures that visually display the migration of coronary artery smooth muscle cells (CASMC) (FIGS. 20(a)-(f)) and normal human dermal fibroblast (NHDF) cells (FIGS. 20(g)-(l)) exposed to various concentrations of 5,6-dihydroxy-hexan-2-one after 48 hours exposure, then cultured an additional 72 hours after removal of the 5,6-dihydroxy-hexan-2-one as described in Example 5. Specifically, FIGS. 20(a) and (b) represent the CASMC control at time zero and 72 hours, respectively; FIGS. 20(c) and (d) represent CASMC (10 mg/ml) at time zero and 72 hours, respectively; and FIGS. 20(e) and (f) represent CASMC (1 mg/ml) at time zero and 72 hours, respectively. FIGS. 20(g) and (h) represent the NHDF cell control at time zero and 72 hours, respectively; FIGS. 20(i) and (j) represent NHDF cells (10 mg/ml) at time zero and 72 hours, respectively; and FIGS. 20(k) and (l) represent NHDF cells (1 mg/ml) at time zero and 72 hours, respectively.
(§5) Cell migration judged by the ability of cells to repopulate the scraped “acellular” space over time indicated no microscopically identifiable effect by the agent at the concentrations tested. […]

[4] = system: coronary artery smooth muscle cells (CASMC); assay: Cell migration into scraped monolayer, CASMC (Example 5); settings: 1 and 10 mg/ml, 48 hours exposure then 72 hours growth
Method: as §4, §5

[5] = system: human umbilical vein endothelial cells (HUVEC); assay: CyQuant cell proliferation after 48 hour exposure, HUVEC (Example 6); settings: for cell proliferation: 48 hour exposure
Method: (§6) Evaluation of the effects of 5,6-dihydroxy-hexan-2-one on human umbilical vein endothelial cells (HUVEC) and Glioblastoma/Astrocytoma cells U87 cellular proliferation and migration during 120 hours following 48 hour exposure to 5,6-dihydroxy-hexan-2-one at concentration of 10 mg/ml, 1 mg/ml, 100 micrograms/ml. Controls were cells not exposed to the agent.
(§7) In order to further explore the effects of this compound, experiments to evaluate the dose-effect response on the antiproliferative effect and on cell migration were conducted on two cell lines, human umbilical vein endothelial cells (HUVEC) and Glioblastoma/Astrocytoma cells (U87), over 120 hours after 48 hours of exposure to the compound.
(§8) A cell proliferation assay available under the trade designation CyQuant from Invitrogen Corporation (Carlsbad, Calif.) determines the density of cells in culture by using a green fluorescent dye which fluoresces when bound to cellular nucleic acids.

[6] = system: human Glioblastoma/Astrocytoma U87 cells; assay: CyQuant cell proliferation after 48 hour exposure, U87 (Example 6); settings: for cell proliferation: 48 hour exposure
Method: as §6, §7, §8

[7] = other concentrations (10 microgram/ml, 1 mg/ml)

CC(=O)CCC(O)CO (stereo not drawn) [5,6-dihydroxy-hexan-2-one]
cell proliferation ([1]; 10 mg/ml): inhibition of cell proliferation | cell proliferation [1, 7]: did not show this effect | cell proliferation ([2]; 10 mg/ml): inhibition of cell proliferation | cell proliferation [2, 7]: did not show this effect | cell migration [3]: not affected | cell migration [4]: not affected | cell proliferation ([5]; 10 mg/ml): antiproliferative effects | time after withdrawal at which inhibitory effect was still observed ([5]; 10 mg/ml, after 48 hour exposure): ≥ 120 h | cell proliferation ([5]; lowest concentration evaluated (100 micrograms/ml)): no antiproliferative effects | cell proliferation ([6]; U87, 10 mg/ml): antiproliferative effects | time after withdrawal at which inhibitory effect was still observed ([6]; U87, 10 mg/ml, after 48 hour exposure): ≥ 120 h | cell proliferation ([6]; U87, lowest concentration evaluated (100 micrograms/ml)): no antiproliferative effects
